{
  "source": "ChEMBL document CHEMBL1201862",
  "about": "“PubChem BioAssay data set” (2004)",
  "key": {"[1]": {"assay": "Luminescence Cell-Based Dose Retest to Confirm Inhibitors of Cancer Stem Cells. [Related pubchem assays (depositor defined):AID2717, AID2721]", "type": "functional", "conditions": "Homo sapiens"}, "[2]": {"assay": "cytotoxicity in HEK-293T cells, dose response, cytotoxicity control for TCR NF-kB inhibitor project, luminescence, T-cell screen hits (AID 489026);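 also: cells exposed to compound about 14 hours before the viability readout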", "type": "functional, cell-based"}, "[3]": {"assay": "cytotoxicity toward DRD oncogenic fibroblasts, dose response, cell-based, non-viral oncogenic, luminescence (AID 1934)", "type": "functional", "conditions": "Homo sapiens"}, "BJ [4]": {"tested_on": "BJ", "assay": "cytotoxicity toward BJ-TERT-LT-ST fibroblasts, dose response, cell-based, RAS-independent, luminescence (AID 1935);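 also: BJ fibroblasts immortalized with TERT plus LT and ST oncogenes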", "type": "functional", "conditions": "Homo sapiens"}, "[5]": {"assay": "inhibitors of SNCA 5'UTR-driven reporter translation, confirmation, H4 neuroglioma cells, luminescence (AID 1988)", "type": "functional, cell-based"}, "BJ [6]": {"tested_on": "BJ", "assay": "cytotoxicity toward BJ-TERT fibroblasts, dose response, cell-based, RAS-independent, luminescence (AID 1933)", "type": "functional", "conditions": "Homo sapiens"}, "[7]": {"assay": "inhibitors of firefly luciferase expression or activity, dose response, H4 neuroglioma cells, luminescence (AID 1990)", "type": "functional, cell-based"}, "[8]": {"assay": "Luminescence Cell-Based Dose Response HTS to Identify Inhibitors of 5'UTR Stem-Loop Driven Prion Protein mRNA Translation in H4 Neuroglioblastoma Cells. [Related pubchem assays: 1827 (Project Summary), 1813 (Primary HTS)]", "type": "functional"}, "[9]": {"target": "T1, High affinity choline transporter 1 (Homo sapiens, UniProt Q9GZV3)", "T1 sequence (Q9GZV3 whole entry)": "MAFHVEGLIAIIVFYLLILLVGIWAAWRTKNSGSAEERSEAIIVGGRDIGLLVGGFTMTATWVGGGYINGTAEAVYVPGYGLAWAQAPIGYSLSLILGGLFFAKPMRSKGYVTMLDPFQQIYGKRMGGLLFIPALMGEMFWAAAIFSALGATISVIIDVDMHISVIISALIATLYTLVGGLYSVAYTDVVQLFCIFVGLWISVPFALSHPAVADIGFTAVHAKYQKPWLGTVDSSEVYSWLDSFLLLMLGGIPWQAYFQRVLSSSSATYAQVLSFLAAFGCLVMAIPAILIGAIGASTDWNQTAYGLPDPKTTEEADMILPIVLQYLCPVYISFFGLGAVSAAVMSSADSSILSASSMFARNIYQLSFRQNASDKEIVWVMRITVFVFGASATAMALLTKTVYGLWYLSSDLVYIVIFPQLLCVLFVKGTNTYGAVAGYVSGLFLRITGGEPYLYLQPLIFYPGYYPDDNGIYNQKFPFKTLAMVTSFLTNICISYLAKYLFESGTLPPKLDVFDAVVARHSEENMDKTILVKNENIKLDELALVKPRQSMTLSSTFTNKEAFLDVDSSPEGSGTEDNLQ", "assay": "CHT inhibitors, dose response, cell-based, 5-point CRC, membrane potential dye (AID 504840)", "type": "functional"}, "[10]": {"target": "Peroxisome proliferator-activated receptor gamma/Nuclear receptor coactivator 3 (Homo sapiens, UniProt P37231)", "sequence (P37231 whole entry)": "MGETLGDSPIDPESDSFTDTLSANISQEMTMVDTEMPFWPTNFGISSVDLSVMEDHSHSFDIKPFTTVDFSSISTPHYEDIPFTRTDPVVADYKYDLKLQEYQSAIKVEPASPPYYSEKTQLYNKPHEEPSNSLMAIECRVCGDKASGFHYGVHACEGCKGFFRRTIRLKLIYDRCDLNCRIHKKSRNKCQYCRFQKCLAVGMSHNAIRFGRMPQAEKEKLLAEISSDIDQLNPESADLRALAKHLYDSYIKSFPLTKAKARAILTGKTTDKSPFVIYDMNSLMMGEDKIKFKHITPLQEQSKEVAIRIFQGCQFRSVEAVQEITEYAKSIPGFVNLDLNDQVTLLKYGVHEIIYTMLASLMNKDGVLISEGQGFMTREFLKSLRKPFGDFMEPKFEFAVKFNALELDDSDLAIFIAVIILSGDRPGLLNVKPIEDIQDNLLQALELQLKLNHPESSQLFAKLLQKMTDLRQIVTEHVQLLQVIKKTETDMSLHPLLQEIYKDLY", "sequence (Q9Y6Q9 whole entry, further chain)": "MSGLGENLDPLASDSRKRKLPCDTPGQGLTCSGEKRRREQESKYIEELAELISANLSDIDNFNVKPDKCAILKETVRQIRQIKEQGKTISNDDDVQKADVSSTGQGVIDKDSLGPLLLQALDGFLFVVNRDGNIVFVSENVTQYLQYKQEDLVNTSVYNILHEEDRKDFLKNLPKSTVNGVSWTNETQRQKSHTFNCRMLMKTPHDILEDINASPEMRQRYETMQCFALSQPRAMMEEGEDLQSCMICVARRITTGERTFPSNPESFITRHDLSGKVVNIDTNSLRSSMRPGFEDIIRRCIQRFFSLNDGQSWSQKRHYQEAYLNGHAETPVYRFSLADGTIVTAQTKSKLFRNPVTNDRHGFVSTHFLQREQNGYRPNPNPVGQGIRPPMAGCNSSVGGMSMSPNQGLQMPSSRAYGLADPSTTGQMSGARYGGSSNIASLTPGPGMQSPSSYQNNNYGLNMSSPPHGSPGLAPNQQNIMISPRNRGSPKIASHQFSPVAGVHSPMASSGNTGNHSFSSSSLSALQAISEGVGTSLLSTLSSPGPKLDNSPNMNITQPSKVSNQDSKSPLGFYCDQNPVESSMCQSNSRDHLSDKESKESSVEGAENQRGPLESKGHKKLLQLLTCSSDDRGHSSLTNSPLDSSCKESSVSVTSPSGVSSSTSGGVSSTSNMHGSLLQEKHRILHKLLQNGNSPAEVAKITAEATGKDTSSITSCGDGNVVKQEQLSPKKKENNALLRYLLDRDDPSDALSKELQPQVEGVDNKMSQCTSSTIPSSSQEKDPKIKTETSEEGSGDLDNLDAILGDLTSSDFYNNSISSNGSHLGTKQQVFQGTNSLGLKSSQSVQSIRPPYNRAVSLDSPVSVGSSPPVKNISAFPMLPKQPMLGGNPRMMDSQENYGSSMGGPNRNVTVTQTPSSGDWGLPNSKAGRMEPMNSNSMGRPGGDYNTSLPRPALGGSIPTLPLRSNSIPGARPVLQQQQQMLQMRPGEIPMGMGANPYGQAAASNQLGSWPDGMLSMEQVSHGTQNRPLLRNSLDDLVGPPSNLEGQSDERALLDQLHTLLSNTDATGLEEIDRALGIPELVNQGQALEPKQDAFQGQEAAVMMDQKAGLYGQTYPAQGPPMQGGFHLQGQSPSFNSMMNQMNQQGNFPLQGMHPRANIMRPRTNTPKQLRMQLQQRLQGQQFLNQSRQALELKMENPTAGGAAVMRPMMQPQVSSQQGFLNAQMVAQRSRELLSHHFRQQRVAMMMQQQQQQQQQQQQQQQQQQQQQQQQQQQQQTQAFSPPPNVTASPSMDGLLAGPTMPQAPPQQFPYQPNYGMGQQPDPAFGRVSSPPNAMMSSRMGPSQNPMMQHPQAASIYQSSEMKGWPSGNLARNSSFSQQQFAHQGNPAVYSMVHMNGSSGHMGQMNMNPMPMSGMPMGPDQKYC", "assay": "(§1) TR-FRET dose response biochemical High Throughput Screening assay for agonists of the steroid receptor coactivator 3 (SRC-3) recruitment by the peroxisome proliferator-activated receptor gamma (PPAR gamma): non-selective agonists. [Related pubchem assays: 1301 (Confirmation screen.), 1048 (Primary screen.)]", "type": "functional"}, "[11]": {"target": "Peroxisome proliferator-activated receptor gamma/Nuclear receptor coactivator 1 (Homo sapiens, UniProt P37231)", "assay": "as §1, with “1 (SRC-1)” for “3 (SRC-3)”, “assays (depositor defined):AID1300, AID1808, AID504735, AID631]” for “assays: 1301 (Confirmation screen.), 1048 (Primary screen.)]”", "type": "protein assay"}, "[12]": {"target": "Peroxisome proliferator-activated receptor gamma/Nuclear receptor coactivator 2 (Homo sapiens, UniProt P37231)", "sequence (P37231 whole entry)": "as the sequence (P37231 whole entry) above", "sequence (Q15596 whole entry, further chain)": "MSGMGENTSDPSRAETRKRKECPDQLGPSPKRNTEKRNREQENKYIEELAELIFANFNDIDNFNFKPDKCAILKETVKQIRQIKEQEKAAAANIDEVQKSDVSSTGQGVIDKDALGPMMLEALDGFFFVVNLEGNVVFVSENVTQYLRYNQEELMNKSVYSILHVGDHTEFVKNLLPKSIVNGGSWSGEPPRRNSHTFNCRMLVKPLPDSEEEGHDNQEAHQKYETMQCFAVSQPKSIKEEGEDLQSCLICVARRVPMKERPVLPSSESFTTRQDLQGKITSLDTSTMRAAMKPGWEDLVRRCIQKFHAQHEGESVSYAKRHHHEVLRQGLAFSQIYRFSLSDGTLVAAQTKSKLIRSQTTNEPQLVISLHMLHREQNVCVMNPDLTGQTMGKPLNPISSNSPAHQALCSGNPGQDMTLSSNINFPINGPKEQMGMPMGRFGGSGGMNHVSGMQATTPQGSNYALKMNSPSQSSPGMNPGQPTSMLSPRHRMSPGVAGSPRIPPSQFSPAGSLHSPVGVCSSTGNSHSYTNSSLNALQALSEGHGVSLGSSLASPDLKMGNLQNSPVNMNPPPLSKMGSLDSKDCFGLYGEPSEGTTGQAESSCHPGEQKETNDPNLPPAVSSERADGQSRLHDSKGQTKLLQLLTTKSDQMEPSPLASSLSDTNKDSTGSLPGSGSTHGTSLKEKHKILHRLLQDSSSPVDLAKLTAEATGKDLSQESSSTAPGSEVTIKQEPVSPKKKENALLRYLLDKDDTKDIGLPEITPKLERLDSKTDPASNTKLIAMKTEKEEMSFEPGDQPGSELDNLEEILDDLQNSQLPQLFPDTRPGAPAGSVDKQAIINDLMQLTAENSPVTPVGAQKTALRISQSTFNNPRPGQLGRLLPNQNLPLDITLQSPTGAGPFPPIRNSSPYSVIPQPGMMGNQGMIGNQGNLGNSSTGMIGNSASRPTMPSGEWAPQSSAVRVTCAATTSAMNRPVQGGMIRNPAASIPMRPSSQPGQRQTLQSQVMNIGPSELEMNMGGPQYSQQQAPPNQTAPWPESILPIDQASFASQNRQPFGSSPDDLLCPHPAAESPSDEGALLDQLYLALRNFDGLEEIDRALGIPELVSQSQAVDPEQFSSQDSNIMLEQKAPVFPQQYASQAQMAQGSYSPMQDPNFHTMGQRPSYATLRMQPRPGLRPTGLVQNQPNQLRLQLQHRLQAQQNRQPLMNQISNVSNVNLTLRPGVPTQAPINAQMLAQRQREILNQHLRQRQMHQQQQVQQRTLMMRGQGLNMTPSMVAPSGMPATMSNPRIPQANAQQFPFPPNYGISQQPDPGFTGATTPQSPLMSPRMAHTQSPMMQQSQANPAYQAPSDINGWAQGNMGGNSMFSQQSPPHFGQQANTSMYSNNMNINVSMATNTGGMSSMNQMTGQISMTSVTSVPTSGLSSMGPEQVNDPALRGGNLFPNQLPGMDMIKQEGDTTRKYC", "assay": "TR-FRET dose response biochemical High Throughput Screening assay for agonists of the steroid receptor coactivator 2 (SRC-2) recruitment by the peroxisome proliferator-activated receptor gamma (PPAR gamma): non-selective agonists. [Related pubchem assays: 1297, 1032 ]", "type": "functional"}, "cells [13]": {"assay": "cells"}, "[14]": {"assay": "A cytotoxicity screen of small molecule inhibitors of the PhoP region in Salmonella typhi identified in the primary screen. [Related pubchem assays: 1850, 1864, 1985 ]", "type": "functional"}, "[15]": {"assay": "inhibitors of intracellular T. cruzi replication, confirmation, NIH3T3 host cells, beta-gal luminescence (AID 2044)", "type": "functional, cell-based"}, "[16]": {"target": "T2, Microphthalmia-associated transcription factor (Homo sapiens, UniProt O75030)", "T2 sequence (O75030 whole entry)": "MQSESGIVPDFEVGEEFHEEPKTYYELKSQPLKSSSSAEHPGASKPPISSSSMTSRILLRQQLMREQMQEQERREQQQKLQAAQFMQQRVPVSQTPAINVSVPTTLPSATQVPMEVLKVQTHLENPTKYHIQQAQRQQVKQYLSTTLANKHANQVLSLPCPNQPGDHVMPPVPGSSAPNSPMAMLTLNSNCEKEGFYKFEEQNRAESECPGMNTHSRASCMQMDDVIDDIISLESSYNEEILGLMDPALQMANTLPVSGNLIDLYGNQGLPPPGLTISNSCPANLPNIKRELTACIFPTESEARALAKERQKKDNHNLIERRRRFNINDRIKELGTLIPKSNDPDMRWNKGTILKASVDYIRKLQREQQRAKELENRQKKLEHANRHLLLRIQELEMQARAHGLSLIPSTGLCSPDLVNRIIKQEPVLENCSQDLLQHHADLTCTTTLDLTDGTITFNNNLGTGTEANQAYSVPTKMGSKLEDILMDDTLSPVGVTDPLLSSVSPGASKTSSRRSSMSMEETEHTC", "assay": "TRPM1 promoter luciferase signal decrease, dose response, MITF inhibitor project, cell-based, SK-MEL-5, cherry-picked, set 3 (AID 493073)", "type": "functional"}, "[17]": {"assay": "cytotoxicity toward NIH3T3 fibroblasts, dose response, counter-screen, cell-based, ATP luminescence, mouse fibroblasts (AID 2010)", "type": "functional"}, "cells [18]": {"assay": "cells", "type": "functional"}, "[19]": {"target": "T3, Alkaline phosphatase, tissue-nonspecific isozyme (Homo sapiens, UniProt P05186)", "T3 sequence (P05186 whole entry)": "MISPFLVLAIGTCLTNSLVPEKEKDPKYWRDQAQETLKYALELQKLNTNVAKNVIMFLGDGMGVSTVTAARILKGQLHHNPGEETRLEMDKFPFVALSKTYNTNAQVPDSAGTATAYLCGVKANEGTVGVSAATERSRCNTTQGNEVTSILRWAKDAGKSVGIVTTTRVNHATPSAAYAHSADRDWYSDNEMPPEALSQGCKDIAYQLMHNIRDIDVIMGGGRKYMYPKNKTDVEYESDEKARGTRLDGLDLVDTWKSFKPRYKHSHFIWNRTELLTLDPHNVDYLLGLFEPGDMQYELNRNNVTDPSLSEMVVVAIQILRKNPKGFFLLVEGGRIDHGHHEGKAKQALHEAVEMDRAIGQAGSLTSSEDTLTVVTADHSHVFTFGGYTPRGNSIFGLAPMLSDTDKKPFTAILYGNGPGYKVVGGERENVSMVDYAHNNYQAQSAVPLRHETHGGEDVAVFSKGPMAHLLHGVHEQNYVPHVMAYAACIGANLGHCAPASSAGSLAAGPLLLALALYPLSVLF", "assay": "human TNAP enzyme inhibitors, SAR follow-up, biochemical, luminescent, dose response (AID 1056)"}, "[20]": {"target": "Alkaline phosphatase, placental type (Homo sapiens, UniProt P05187)", "sequence (P05187 whole entry)": "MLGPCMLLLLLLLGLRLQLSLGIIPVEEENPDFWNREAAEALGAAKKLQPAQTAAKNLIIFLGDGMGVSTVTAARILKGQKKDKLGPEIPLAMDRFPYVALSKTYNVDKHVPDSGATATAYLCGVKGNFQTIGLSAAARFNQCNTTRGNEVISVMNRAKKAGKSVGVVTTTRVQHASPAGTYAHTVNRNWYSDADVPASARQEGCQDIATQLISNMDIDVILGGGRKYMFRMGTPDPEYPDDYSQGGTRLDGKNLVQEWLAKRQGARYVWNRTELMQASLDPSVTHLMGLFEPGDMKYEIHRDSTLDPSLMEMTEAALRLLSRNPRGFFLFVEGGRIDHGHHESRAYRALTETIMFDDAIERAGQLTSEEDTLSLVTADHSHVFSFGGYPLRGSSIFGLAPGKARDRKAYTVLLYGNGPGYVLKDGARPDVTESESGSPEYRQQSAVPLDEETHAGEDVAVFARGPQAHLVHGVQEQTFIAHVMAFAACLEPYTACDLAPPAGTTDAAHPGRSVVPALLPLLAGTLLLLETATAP", "assay": "PLAP enzyme inhibitors, confirmation, biochemical, luminescence (AID 1512)", "type": "functional"}, "[21]": {"target": "T4, Carboxy-terminal domain RNA polymerase II polypeptide A small phosphatase 1 (Homo sapiens, UniProt Q9GZU7)", "T4 sequence (Q9GZU7 whole entry)": "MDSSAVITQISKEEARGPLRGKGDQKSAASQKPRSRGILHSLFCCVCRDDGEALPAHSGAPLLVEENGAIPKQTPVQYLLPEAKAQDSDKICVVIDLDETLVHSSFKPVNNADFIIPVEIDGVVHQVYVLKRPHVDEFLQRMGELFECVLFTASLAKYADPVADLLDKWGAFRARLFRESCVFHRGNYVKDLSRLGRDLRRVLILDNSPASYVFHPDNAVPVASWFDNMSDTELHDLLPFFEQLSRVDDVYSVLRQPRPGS", "assay": "inhibitors of CTDSP1, concentration-response testing, biochemical assay, absorbance-based, actives from ultra-high-throughput screening (AID 540297)", "type": "functional"}, "Escherichia coli": {"tested_on": "Escherichia coli", "assay": "microbe, parasite or virus in culture"}},
  "note": "Active and inactive are the calls of the source.",
  "data": [
    {"smiles": "COc1cccc(-c2cc(O)c3cc(NC(=O)c4ccc(N(C)C)cc4)ccc3n2)c1", "values": [
      {"measurement": "AC50", "setting": "[1]", "value": "0.477 µM (active)"},
      {"measurement": "IC50", "setting": "[2]", "value": "> 80 µM (inactive)"},
      {"measurement": "EC50", "setting": "[3]", "value": "0.599 µM (active)"},
      {"measurement": "EC50", "setting": "BJ [4]", "value": "0.729 µM (inconclusive)"},
      {"measurement": "EC50", "setting": "[5]", "value": "0.296 µM (active)"},
      {"measurement": "EC50", "setting": "BJ [6]", "value": "0.664 µM (active)"},
      {"measurement": "EC50", "setting": "[7]", "value": "0.334 µM (active)"},
      {"measurement": "EC50", "setting": "[8]", "value": "1.24 µM (active)"}
    ]},
    {"smiles": "CC(=O)Nc1ccc(Nc2cc(C)c3ccccc3n2)cc1", "values": [
      {"measurement": "IC50", "setting": "[9]", "value": "11.2 µM (active)"}
    ]},
    {"smiles": "CC(C)COC(=O)CNc1nnc(S)nc1O", "values": [
      {"measurement": "EC50", "setting": "[10]", "value": "37.9 µM (not active)"},
      {"measurement": "EC50", "setting": "[11]", "value": "2.86 µM (active)"},
      {"measurement": "EC50", "setting": "[12]", "value": "3.42 µM (active)"}
    ]},
    {"smiles": "Cc1ccc(OCC(=O)N/N=C/c2ccc([N+](=O)[O-])o2)cc1", "values": [
      {"measurement": "EC50", "setting": "cells [13]", "value": "0.078 µM (active)"},
      {"measurement": "EC50", "setting": "[14]", "value": "> 50 µM (active)"},
      {"measurement": "EC50", "setting": "[15]", "value": "< 0.1 µM (active)"},
      {"measurement": "AC50", "setting": "[16]", "value": "8.9 µM (active)"},
      {"measurement": "EC50", "setting": "[17]", "value": "> 60 µM (not active)"},
      {"measurement": "IC50", "setting": "cells [18]", "value": "3.01 µM (active)"}
    ]},
    {"smiles": "CCc1ccccc1N=C(S)N(Cc1cccc(C)c1)c1cccnc1", "values": [
      {"measurement": "EC50", "setting": "[14]", "value": "> 50 µM (active)"}
    ]},
    {"smiles": "O=C(CSc1ncnc2c1oc1ccccc12)Nc1cccc(C(F)(F)F)c1", "values": [
      {"measurement": "EC50", "setting": "[10]", "value": "> 79.4 µM (not active)"},
      {"measurement": "EC50", "setting": "[11]", "value": "> 79.4 µM (inactive)"},
      {"measurement": "EC50", "setting": "[12]", "value": "23 µM (not active)"}
    ]},
    {"smiles": "CCc1nccn1CC(=O)c1ccc(O)c(O)c1", "values": [
      {"measurement": "IC50", "setting": "[19]", "value": "62.5 µM (active)"},
      {"measurement": "IC50", "setting": "[20]", "value": "3.73 µM (active)"}
    ]},
    {"smiles": "Cc1ccsc1/C=N/Nc1ccc(C(=O)O)cc1", "values": [
      {"measurement": "EC50", "setting": "[14]", "value": "> 50 µM (active)"}
    ]},
    {"smiles": "COc1ccc(CC(=O)NNC(=O)COc2ccc3ccccc3c2)cc1", "values": [
      {"measurement": "EC50", "setting": "[10]", "value": "3.65 µM (active)"},
      {"measurement": "EC50", "setting": "[11]", "value": "2 µM (active)"},
      {"measurement": "EC50", "setting": "[12]", "value": "1.93 µM (active)"},
      {"measurement": "IC50", "setting": "[21]", "value": "9.26 µM (active)"}
    ]},
    {"smiles": "Nc1nnc(-c2cc3ccccc3oc2=O)s1", "values": [
      {"measurement": "IC50", "setting": "[19]", "value": "> 100 µM (inactive)"},
      {"measurement": "IC50", "setting": "[20]", "value": "> 100 µM (inactive)"}
    ]},
    {"smiles": "CC(C)(C)c1ccc(C(=O)n2cnc3ccccc32)cc1", "values": [
      {"measurement": "AC50", "setting": "Escherichia coli", "value": "33.1 µM (active)"}
    ]}
  ]
}
